Experimental data taken from patent US9017722B2, “Pharmaceutical composition containing as an active ingredient 5-methyl-1-phenyl-2-(1H)-pyridone” (Intermune, Inc., priority 2001, dated 2015).

Test: Light exposure testing (color difference after light irradiation)
Format: physicochemical
Settings: for Discoloration / Color difference (ΔE): D65 fluorescent lamp, 3570 Lx, exposure dose 1,200,000 Lx·hr, 25° C., room humidity; for Color difference (ΔE): CIELAB, reflected ray measurement; for light-stability (conclusion from Table 2): light exposure test, 1,200,000 Lx·hr
Protocol: Light exposure test of pirfenidone was carried out under the following condition, using “drug substance” obtained by packing 500 mg of milled pirfenidone drug substance in a heat-sealed transparent SP (Striped Package), “compressed drug substance” obtained by statically compressing 300 mg of milled pirfenidone drug substance, “the plain tablets” obtained in the above Example 1, and “the coated tablets” obtained in the above Example 1. […]
light irradiation apparatus: light stability test apparatus (LTL400-D5) (Nagano Science Equipment Mfg. Co., Ltd.) fluorescent light: D65 fluorescent lamp for color comparing and test temperature and humidity: 25° C., room humidity illumination intensity: 3570 Lx […]
coloring difference measure apparatus: Color analyzer TC-1800MK-II measurement method: reflected ray measurement color specification system: CIELAB measurement condition: second degree visual field

Row | Compound | Discoloration | Color difference (ΔE) | light-stability (conclusion from Table 2) (listed as pirfenidone compressed drug substance) | light-stability (conclusion from Table 2) (listed as pirfenidone drug substance)
1 | Cc1ccc(=O)n(-c2ccccc2)c1 [Compressed drug substance, 5-Methyl-1-phenyl-2-(1H)-pyridone] | remarkable | 3.62 | have a problem in light-stability | –
2 | Cc1ccc(=O)n(-c2ccccc2)c1 [Drug substance, 5-Methyl-1-phenyl-2-(1H)-pyridone] | slight | 0.73 | – | remarkable color difference was not observed
